Measurements reported in US7119073B2, “Peptides and their use as inhibitors of hepatitis C virus ns3 protease” (Istituto Di Ricerche Di Biologia Molecolare P. Angeletti SpA, priority 2001, dated 2006).
Where two headings read alike, the source gives them in different places. Where a SMILES comes first, the peptide text is derived from it. The star is where a group is joined. NHPhenethyl = c1ccc(CCN*)cc1; Cbz = O=C(OCc1ccccc1)*; Boc = CC(C)(C)OC(=O)*

Biological target: T1, NS3 protease domain complexed to a modified form of the NS4A peptide (Pep4AK) (Hepatitis C virus genotype 1b, UniProt P26663)
T1 construct: NS3 protease domain (residues 1027–1206 of the HCV polyprotein)
Experiment: HCV NS3 protease domain/NS4A cofactor peptide assay (Assay B)
Assay type: biochemical

[1] = Table 1, NS3 protease domain/Pep4AK, 4AB peptide substrate, read-out: Assay B
[2] = Table 2, NS3 protease domain/Pep4AK, read-out: Assay B
[3] = NS3 protease domain/NS4A cofactor peptide assay, read-out: Assay B (IC50 class)
[4] = Table 4, NS3 protease domain/Pep4AK, read-out: Assay B

T1 sequence (P26663 1027-1206, other chains not shown): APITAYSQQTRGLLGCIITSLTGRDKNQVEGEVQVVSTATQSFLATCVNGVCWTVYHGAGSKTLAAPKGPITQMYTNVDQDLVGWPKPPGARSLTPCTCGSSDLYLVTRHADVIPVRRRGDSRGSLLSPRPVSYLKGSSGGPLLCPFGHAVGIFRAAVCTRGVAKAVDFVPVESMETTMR

Compound | IC50 [1] [µM] | IC50 [2] [µM] | further results
CC(C)COC(=O)NC(CCC(=O)O)C(=O)NC(CC(C)C)C(=O)NC(CS)C(=O)NCCc1cccc(-c2ccccc2)c1 (stereo not drawn) [Compound 136] | < 100 |  | 
COc1ccc(CCNC(=O)[C@H](CS)NC(=O)[C@H](CC(C)C)NC(=O)[C@H](CCC(=O)O)NC(=O)c2ccc3c(c2)OCO3)cc1 [Compound 204] |  | < 100 | 
CC(C)COC(=O)NC(CCC(=O)O)C(=O)NC(CC(C)C)C(=O)NC(CC(F)F)C(=O)NCCc1c(F)cc(C(=O)O)cc1F (stereo not drawn) [Compound 187] | < 1 |  | 
CC(C)C[C@H](NC(=O)[C@H](CCC(=O)O)NS(=O)(=O)c1ccccc1)C(=O)N[C@@H](CS)C(=O)NCCc1ccccc1Cl [Compound 249] |  | < 100 | 
CC(C)COC(=O)NC(CCC(=O)O)C(=O)NC(CC(C)C)C(=O)NC(CS)C(=O)NCCc1ccccc1OCc1ccccc1 (stereo not drawn) [Compound 124] | < 100 |  | 
CC(C)C[C@H](NC(=O)C1(Cc2ccc(C(=O)O)cc2)Cc2ccccc2N1)C(=O)N[C@@H](CS)C(=O)NCCc1ccc(C(=O)O)cc1 (single isomer, unassigned) [Compound 702] |  |  | IC50 [3]: < 100 µM
COC(=O)c1ccc(CCNC(=O)C(CS)NC(=O)C(CC(C)C)NC(=O)C(CCC(=O)O)NC(=O)OCC(C)C)c(F)c1 (stereo not drawn) [Compound 185] | < 100 |  | 
COC(=O)c1ccccc1CCNC(=O)C(CS)NC(=O)C(CC(C)C)NC(=O)C(CCC(=O)O)NC(=O)OCC(C)C (stereo not drawn) [Compound 122] | < 100 |  | 
CC(C)COC(=O)N[C@@H](CCC(=O)O)C(=O)N[C@@H](CCc1ccccc1)C(=O)N[C@@H](CS)C(=O)NCCc1ccccc1Cl [Compound 414] |  |  | IC50 [4]: < 100 µM
CC(C)C[C@H](NC(=O)[C@H](CCC(=O)O)NC(=O)C1CCC(C(=O)O)CC1)C(=O)N[C@@H](CS)C(=O)NCCc1ccccc1Cl (mixture of isomers) [Compound 233] |  | < 100 | 
COc1ccc(CCNC(=O)C(CS)NC(=O)C(CC(C)C)NC(=O)C(CCC(=O)O)NC(=O)OCc2ccccc2)cc1 (stereo not drawn) [Compound 143] | < 100 |  | 
Cc1ccc(CCNC(=O)C(CS)NC(=O)C(CC(C)C)NC(=O)C(CCC(=O)O)NC(=O)OCC(C)C)cc1 (stereo not drawn) [Compound 140] | < 100 |  | 
COc1ccc(CCNC(=O)[C@H](CS)NC(=O)[C@H](CC(C)C)NC(=O)[C@H](CCC(=O)O)NC(=O)c2ccccc2)cc1 [Compound 202] |  | < 100 | 
CC(C)COC(=O)N[C@@H](CCC(=O)O)C(=O)N[C@@H](CC(C)C)C(=O)N[C@@H](CS)C(=O)NCC(CC(=O)O)c1ccc(Cl)cc1 (stereo partly drawn) [Compound 111] | < 100 |  | 
COc1ccc(CCNC(=O)[C@H](CS)NC(=O)[C@H](CC(C)C)NC(=O)[C@H](CCC(=O)O)NC(=O)Cc2ccccc2)cc1 [Compound 216] |  | < 100 | 
CC(C)COC(=O)N[C@@H](CCC(=O)O)C(=O)N(C)[C@@H](CC(C)C)C(=O)N[C@@H](CS)C(=O)NCCc1ccccc1Cl [Compound 416] |  |  | IC50 [4]: < 100 µM
COc1ccc(CCNC(=O)[C@H](CS)NC(=O)[C@H](CC(C)C)NC(=O)[C@H](CCC(=O)O)NC(=O)C(C)(C)CCC(=O)O)cc1 [Compound 243] |  | < 100 | 
CC(C)C[C@H](NC(=O)[C@H](CCC(=O)O)NC(=O)OCc1ccccc1)C(=O)N[C@@H](CS)C(=O)NCCc1ccccc1 [Compound 101] (Cbz-Glu-Leu-Cys-NHPhenethyl) | < 100 |  | 
C=CCNC(=O)N[C@@H](CCC(=O)O)C(=O)N[C@@H](CC(C)C)C(=O)N[C@@H](CS)C(=O)NCCc1ccccc1Cl [Compound 246] |  | < 100 | 

Compound | IC50 [1] [µM] | IC50 [2] [µM] | further results
COc1ccc(CCNC(=O)[C@H](CS)NC(=O)[C@H](CC(C)C)NC(=O)[C@H](CCC(=O)O)NS(=O)(=O)c2ccc3ccccc3c2)cc1 [Compound 255] |  | < 100 | 
CC(C)COC(=O)NC(CCC(=O)O)C(=O)NC(CC(C)C)C(=O)NC(CS)C(=O)NCCc1ccc([N+](=O)[O-])cc1 (stereo not drawn) [Compound 147] | < 100 |  | 
CC(C)C[C@H](NC(=O)[C@H](CCC(=O)O)NC(=O)C1C[C@H]1c1ccccc1)C(=O)N[C@@H](CS)C(=O)NCCc1ccccc1Cl (stereo partly drawn) [Compound 219] |  | < 100 | 
COC(=O)c1ccc(CCNC(=O)C(CS)NC(=O)C(CC(C)C)NC(=O)C(CCC(=O)O)NC(=O)OCC(C)C)cc1 (stereo not drawn) [Compound 150] | < 100 |  | 
COc1ccc(CCNC(=O)C(CS)NC(=O)C(CC(C)C)NC(=O)C(CCC(=O)O)NC(=O)OC(C)(C)C)cc1 (stereo not drawn) [Compound 142] | < 100 |  | 
CC(C)C[C@H](NC(=O)[C@H](CCC(=O)O)NC(=O)N1CCOCC1)C(=O)N[C@@H](CS)C(=O)NCCc1ccccc1Cl [Compound 237] |  | < 100 | 
CC(C)C[C@H](NC(=O)C1(Cc2ccc(C(=O)O)s2)CCc2ccccc2N1)C(=O)N[C@@H](CC(F)F)C(=O)NCCc1ccc(C(=O)O)cc1Cl (single isomer, unassigned) [Compound 711a] |  |  | IC50 [3]: < 100 µM
CC(C)C[C@H](NC(=O)[C@H](CCC(=O)O)NC(=O)CCC(=O)O)C(=O)N[C@@H](CS)C(=O)NCCc1ccccc1Cl [Compound 239] |  | < 100 | 
CC(C)C[C@H](NC(=O)[C@H](CCC(=O)O)NS(=O)(=O)c1cccs1)C(=O)N[C@@H](CS)C(=O)NCCc1ccccc1Cl [Compound 253] |  | < 100 | 
CC(C)CC(NC(=O)C(CCC(=O)O)NC(=O)OC(C)(C)C)C(=O)NC(CS)C(=O)NCCc1ccccc1 (stereo not drawn) [Compound 103] (Boc-Glu-Leu-Cys-NHPhenethyl; configuration not given here) | < 100 |  | 
CC(C)COC(=O)NC(CCC(=O)O)C(=O)NC(CC(C)C)C(=O)NC(CS)C(=O)NCCc1ccc(C(C)(C)C)cc1 (stereo not drawn) [Compound 148] | < 100 |  | 
CC(C)COC(=O)N[C@@H](CCC(=O)O)C(=O)N1Cc2ccccc2C[C@H]1C(=O)N[C@@H](CS)C(=O)NCCc1ccccc1Cl [Compound 417] |  |  | IC50 [4]: < 100 µM
CC(C)C[C@H](NC(=O)[C@H](CCC(=O)O)NC(=O)Cc1ccsc1)C(=O)N[C@@H](CS)C(=O)NCCc1ccccc1Cl [Compound 222] |  | < 100 | 
CC(C)COC(=O)NC(CCC(=O)O)C(=O)NC(CC(C)C)C(=O)NC(CS)C(=O)NCCc1ccc(C(=O)O)cc1F (stereo not drawn) [Compound 186] | < 1 |  | 
COc1ccccc1CCNC(=O)C(CS)NC(=O)C(CC(C)C)NC(=O)C(CCC(=O)O)NC(=O)OCC(C)C (stereo not drawn) [Compound 119] | < 100 |  | 
COc1ccc(CCNC(=O)C(CS)NC(=O)C(CC(C)C)NC(=O)C(CCC(=O)O)NC(=O)OCC(C)C)cc1Br (stereo not drawn) [Compound 176] | < 100 |  | 
Cc1nn(Cc2cccc(C(=O)N[C@@H](CCC(=O)O)C(=O)N[C@@H](CC(C)C)C(=O)N[C@@H](CS)C(=O)NCCc3ccccc3Cl)c2)c(C)c1Br [Compound 210] |  | < 100 | 
CC(=O)NS(=O)(=O)c1ccc(CCNC(=O)C(CS)NC(=O)C(CC(C)C)NC(=O)C(CCC(=O)O)NC(=O)OCC(C)C)cc1 (stereo not drawn) [Compound 160] | < 10 |  | 
CCOC(=O)/C=C/c1ccc(CCNC(=O)[C@H](CS)NC(=O)[C@H](CC(C)C)NC(=O)[C@H](CCC(=O)O)NC(=O)OCC(C)C)cc1 [Compound 157] | < 10 |  | 

Compound | IC50 [1] [µM] | IC50 [2] [µM] | further results
CC(C)CC(NC(=O)c1ccccc1-c1ccccc1C(=O)O)C(=O)NC(CC(F)F)C(=O)NCCc1ccc(C(=O)O)cc1Cl (stereo not drawn) [Compound 715] |  |  | IC50 [3]: < 100 µM
CCOc1ccccc1CCNC(=O)C(CS)NC(=O)C(CC(C)C)NC(=O)C(CCC(=O)O)NC(=O)OCC(C)C (stereo not drawn) [Compound 120] | < 100 |  | 
CC(C)COC(=O)NC(CCC(=O)O)C(=O)NC(CC(C)C)C(=O)NC(CS)C(=O)NCCc1cccs1 (stereo not drawn) [Compound 191] | < 100 |  | 
COC(=O)Cc1ccc(CCNC(=O)C(CS)NC(=O)C(CC(C)C)NC(=O)C(CCC(=O)O)NC(=O)OCC(C)C)cc1 (stereo not drawn) [Compound 153] | < 100 |  | 
CC(C)C[C@H](NC(=O)[C@H](CCC(=O)O)NC(=O)C1CCCCC1)C(=O)N[C@@H](CS)C(=O)NCCc1ccccc1Cl [Compound 230] |  | < 100 | 
CC[C@H](NC(=O)[C@H](CCC(=O)O)NC(=O)OCC(C)C)C(=O)N[C@@H](CS)C(=O)NCCc1ccccc1Cl [Compound 401] |  |  | IC50 [4]: < 100 µM
CC(C)COC(=O)N[C@@H](CCC(=O)O)C(=O)N[C@@H](CC(C)C)C(=O)N[C@@H](CS)C(=O)NC[C@H](C)c1ccccc1 [Compound 108] | < 100 |  | 
CC(C)COC(=O)NC(CCC(=O)O)C(=O)NC(CC(C)C)C(=O)NC(CS)C(=O)NCCc1ccc(S(=O)(=O)NC(=O)C(C)C)cc1 (stereo not drawn) [Compound 161] | < 10 |  | 
COc1ccc(CCNC(=O)[C@H](CS)NC(=O)[C@H](CC(C)C)NC(=O)[C@H](CCC(=O)O)NS(C)(=O)=O)cc1 [Compound 254] |  | < 100 | 
CC(C)C[C@H](NC(=O)[C@@H](NC(=O)OCC1CCCC1)C(C)C)C(=O)N[C@@H](CS)C(=O)NCCc1ccc(C(=O)O)cc1Cl [Compound 181] | < 10 |  | 
CC(C)COC(=O)NC(CCC(=O)O)C(=O)NC(CC(C)C)C(=O)NC(CS)C(=O)NCCc1cccc(C(F)(F)F)c1 (stereo not drawn) [Compound 131] | < 100 |  | 
CC(C)C[C@H](NC(=O)[C@@H](NC(=O)OCC1CCOC1)C(C)C)C(=O)N[C@@H](CS)C(=O)NCCc1ccc(C(=O)O)cc1Cl (stereo partly drawn) [Compound 183] | < 10 |  | 
CC(C)C[C@H](NC(=O)[C@H](CCC(=O)O)NC(=O)CCc1ccccc1)C(=O)N[C@@H](CS)C(=O)NCCc1ccc(Cl)cc1Cl [Compound 217] |  | < 100 | 
COC(=O)CCc1ccc(CCNC(=O)C(CS)NC(=O)C(CC(C)C)NC(=O)C(CCC(=O)O)NC(=O)OCC(C)C)cc1 (stereo not drawn) [Compound 155] | < 100 |  | 
CC(C)CC(NC(=O)c1ccccc1-c1ccccc1C(=O)O)C(=O)NC(CS)C(=O)NCCc1ccc(Cl)cc1Cl (stereo not drawn) [Compound 717] |  |  | IC50 [3]: < 100 µM
CC(C)COC(=O)NC(CCC(=O)O)C(=O)NC(CC(C)C)C(=O)NC(CS)C(=O)NCCc1ccccc1Br (stereo not drawn) [Compound 117] | < 100 |  | 
CC(C)COC(=O)N[C@@H](CCC(=O)O)C(=O)NC1(C(=O)N[C@@H](CS)C(=O)NCCc2ccccc2Cl)Cc2ccccc2C1 [Compound 415] |  |  | IC50 [4]: < 100 µM
CC(C)C[C@H](NC(=O)[C@H](CCC(=O)O)NC(=O)CC1NC(=O)NC1=O)C(=O)N[C@@H](CS)C(=O)NCCc1ccc(Cl)cc1Cl (stereo partly drawn) [Compound 238] |  | < 100 | 
CC(C)COC(=O)N[C@@H](CCC(=O)O)C(=O)N[C@@H](CC(C)C)C(=O)N[C@@H](CS)C(=O)NCC(C)c1ccccc1 (mixture of isomers) [Compound 107] | < 100 |  | 
